Key:
BiP NBD [1] = target: T1, BiP NBD (Homo sapiens, UniProt P11021); assay: NMR experiment with MABA-ATP (no E1, no E2) and kinetic fit of the MABA-ATP/MABA-ADP functional cycle; type: biochemical; parameters: His6 (N, cleaved yes); made in house; host or cells: E. coli BL21-(DE3)-Lemo, pET28a vector; conditions: Supplementary Fig 13b
Description: […] After the equilibration time 2D [^13C,^1H]-HMQC spectra were recorded in interleaved mode with 1D ^1H NMR spectra. […] The same setup was used for the alternative experiments by including or excluding E1 and/or E2. When E1 was not included, the ratio of the ATP/ADP NMR signals was used to monitor their relative concentrations.
(1 picture or pasted object on this page, not shown here)

BiP NBD [2] = target: T1, BiP NBD; assay: Global kinetic fit (MCMC) of four NMR data sets (E1+E2, E1 only, E2 only, no recycling): functional cycle kinetic parameters; type: biochemical; parameters: His6 (N, cleaved yes); made in house; host or cells: E. coli BL21-(DE3)-Lemo, pET28a vector
Description: It comprises 5 different states that are connected by […] reaction equations of first and second order. We consider ATP hydrolysis an irreversible reaction without backreaction. The other pathways are reversible dissociation/association reactions, arbitrarily labeled 1–5. The microscopic equations (elementary reactions) for these 11 reactions are given by:1 NBD^ATPkcat→NBD^ADP⋅Pi 2 NBD^ATPkoff1⇌kon1NBD^apo+ATP 3 NBD^ADPkoff2⇌kon2NBD^apo+ADP 4 NBD^Pikoff3⇌kon3NBD^apo+Pi 5 NBD^ADP⋅Pikoff4⇌kon4NBD^ADP+Pi 6 NBD^ADP⋅Pikoff5⇌kon5NBD^Pi+ADP With the forward and backward kinetic rate constants connected by thermodynamic equilibrium dissociation constants given by7 koffi/koni=KDifori=1,…,5 For each of the 5 states, a differential equation describing the conservation of mass can be derived:8 d/dtNBD^apo=+koff1NBD^ATP+koff2NBD^ADP+koff3NBD^Pi−kon1NBD^apoATP−kon2NBD^apoADP−kon3NBD^apoPi 9 d/dt[NBD^ATP]=+kon1NBD^apoATP−koff1NBD^ATP−kcatNBD^ATP 10 d/dtNBD^ADP⋅Pi=+kcatNBD^ATP+kon4NBD^ADPPi+kon5NBD^PiADP−koff4NBD^ADP⋅Pi−koff5NBD^ADP⋅Pi 11 d/dtNBD^ADP=+koff4NBD^ADP⋅Pi+kon2NBD^apoADP−koff2NBD^ADP−kon4NBD^ADPPi 12 d/dtNBD^Pi=+koff5NBD^ADP⋅Pi+kon3NBD^apoPi−koff3NBD^Pi−kon5NBD^PiADP Furthermore, we have the total amount13 NBD^apo+NBD^ATP+NBD^ADP+NBD^ADP⋅Pi+NBD^Pi=NBD0 These equations can be used for numerical fitting of steady-state and non-steady-state experimental data.
The experimental data of the BiP NBD in-cyclo experiments were fitted using standard reaction kinetics. Free variables were the kon and koff rates for the five reversible reaction and the catalytic rate constant (kcat) for the irreversible ATP hydrolysis step (See theory section). The initial values for kcat , koff2 , koff4 and koff5 were set to the value determined experimentally with in-cyclo experiment. The initial value for koff3 was taken from the EXSY experiment and the initial range for koff1 and KD1 were taken from the literature. […] The prior distributions were defined based on the average state occupancy resolved from the in-cyclo experiment: tNBD·ADP, tNBD, tNBD·ADP·Pi and tNBD·Pi. Numerical integration of the corresponding differential equations for the reaction scheme (described in Fig. 2a) was performed using a custom Python module (Kinetic).
To fully determine all kinetic parameters, the data fitting procedure was conducted as a global fit of four independent experimental datasets: (i) the in-cyclo experiment with ATP regeneration and phosphate removal, (ii) ATP regeneration only, (iii) single batch experiments starting from pure ATP with the phosphate removal system, and (iv) single batch experiments starting from pure ATP.
Fitting of the functional cycle kinetic parameters. a-d, Global fit of the experimental data presented in the manuscript E1 +E2 (a), E1 (b), E2 (c), no recycling system (d). Data points are shown as circles NBD·ADP (blue), NBD·ADP·PI (dark blue) and NBD·ATP (red) (left) and pyruvate (grey), glucose-1-P (lavender), ATP (red) and ADP (blue) (right). The fit of the data is shown as lines in the same color as the data points. Data points and standard deviation for three independent experiments. e, Numerical stability of the global fitting of the experimental data.

[3] = Supplementary Fig 10a, time 5 min
[4] = Supplementary Fig 10a, time 11 min
[5] = Supplementary Fig 10a, time 17 min
[6] = Supplementary Fig 10a, time 23 min
[7] = Supplementary Fig 10a, time 29 min
[8] = Supplementary Fig 10a, time 35 min
[9] = Supplementary Fig 10a, time 41 min
[10] = Supplementary Fig 10a, time 47 min
[11] = Supplementary Fig 10a, time 53 min
[12] = Supplementary Fig 10a, time 59 min
[13] = Supplementary Fig 10a, time 65 min
[14] = Supplementary Fig 10a, time 71 min
[15] = Supplementary Fig 10b, time 10 min
[16] = Supplementary Fig 10b, time 16 min
[17] = Supplementary Fig 10b, time 22 min
[18] = Supplementary Fig 10b, time 28 min
[19] = Supplementary Fig 10b, time 34 min
[20] = Supplementary Fig 10b, time 40 min
[21] = Supplementary Fig 10b, time 46 min
[22] = Supplementary Fig 10b, time 52 min
[23] = Supplementary Fig 10b, time 58 min
[24] = Supplementary Fig 10b, time 64 min
[25] = Supplementary Fig 10b, time 70 min

T1 sequence (P11021 19-406): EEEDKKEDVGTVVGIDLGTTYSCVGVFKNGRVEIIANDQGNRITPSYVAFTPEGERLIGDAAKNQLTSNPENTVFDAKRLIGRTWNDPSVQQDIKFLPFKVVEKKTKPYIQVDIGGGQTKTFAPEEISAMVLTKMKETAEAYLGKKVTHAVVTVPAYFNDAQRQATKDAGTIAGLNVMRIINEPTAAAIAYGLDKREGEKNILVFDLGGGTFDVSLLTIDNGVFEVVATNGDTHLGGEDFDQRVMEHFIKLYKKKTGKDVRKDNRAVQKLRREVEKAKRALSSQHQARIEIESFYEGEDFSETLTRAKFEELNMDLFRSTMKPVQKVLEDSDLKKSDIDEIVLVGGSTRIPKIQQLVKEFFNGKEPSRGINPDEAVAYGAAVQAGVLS

species (BiP NBD [2]; [3]) [µM] | species (BiP NBD [2]; [4]) [µM] | species (BiP NBD [2]; [5]) [µM] | species (BiP NBD [2]; [6]) [µM] | species (BiP NBD [2]; [7]) [µM] | species (BiP NBD [2]; [8]) [µM] | species (BiP NBD [2]; [9]) [µM] | species (BiP NBD [2]; [10]) [µM] | species (BiP NBD [2]; [11]) [µM] | species (BiP NBD [2]; [12]) [µM] | species (BiP NBD [2]; [13]) [µM] | species (BiP NBD [2]; [14]) [µM] | species (BiP NBD [2]; [15]) [µM] | species (BiP NBD [2]; [16]) [µM] | species (BiP NBD [2]; [17]) [µM] | species (BiP NBD [2]; [18]) [µM] | species (BiP NBD [2]; [19]) [µM] | species (BiP NBD [2]; [20]) [µM] | species (BiP NBD [2]; [21]) [µM] | species (BiP NBD [2]; [22]) [µM] | SMILES | other results
– | – | – | – | – | – | – | – | – | – | – | – | – | – | – | – | – | – | – | – | CNc1ccccc1C(=O)NCCCCNc1nc2c(N)ncnc2n1[C@@H]1O[C@H](COP(=O)(O)OP(=O)(O)OP(=O)(O)O)[C@@H](O)[C@H]1O [MABAATP] | species (BiP NBD [1]; time 4 min): 649 µM; species (BiP NBD [1]; time 10 min): 492.3 µM; species (BiP NBD [1]; time 16 min): 374.2 µM; species (BiP NBD [1]; time 22 min): 287.7 µM; species (BiP NBD [1]; time 28 min): 199.6 µM; species (BiP NBD [1]; time 34 min): 160.1 µM; species (BiP NBD [1]; time 40 min): 111.4 µM; species (BiP NBD [1]; time 46 min): 92.6 µM; species (BiP NBD [1]; time 52 min): 70.6 µM; species (BiP NBD [1]; time 58 min): 65.7 µM; species (BiP NBD [1]; time 64 min): 67.7 µM
841 | 1872 | 3013 | 4002 | 4950 | 5935 | 6850 | 7775 | 8621 | 9455 | 10281 | 11083 | 1011 | 1602 | 2255 | 2820 | 3384 | 3735 | 4207 | 4544 | CC(=O)C(=O)O [Pyruvate] | species (BiP NBD [2]; [23]): 4962 µM; species (BiP NBD [2]; [24]): 5335 µM; species (BiP NBD [2]; [25]): 5727 µM
23927 | 22915 | 22075 | 20991 | 20195 | 19469 | 18568 | 17755 | 16928 | 16013 | 15275 | 14277 | 9179 | 8398 | 7745 | 7180 | 6616 | 6265 | 5793 | 5256 | C=C(OP(=O)(O)O)C(=O)O [PEP] | species (BiP NBD [2]; [23]): 4838 µM; species (BiP NBD [2]; [24]): 4465 µM; species (BiP NBD [2]; [25]): 3973 µM
